Data published in patent US20240197761A1, “FUCOSYLATION AND IMMUNE MODULATION IN CANCER” (H. LEE MOFFITT CANCER CENTER AND RESEARCH INSTITUTE, INC., priority 2021, published 2024).

Experiments:
[1] = system: HLA-DRB1 in WM793 and 1205Lu cells; test: Cell surface fucosylation and HLA-DRB1 (flow cytometry), HLA-DRB1 mRNA (qRT-PCR) and protein (IB) in melanoma cells; assay type: cell-based, human; details: 250 μM, 72 h
Source text: FIGS. 18A-18F show N-linked fucosylation of HLA-DRB1 at N48 regulates its cell surface localization and is required for tumor suppression and increased TIL abundance. (a) (upper) Amino acid sequence alignments showing conservation of predicted N- and O-linked fucosylation sites in human HLA-DRB1 (N48 and T129) and mouse H2EB1 (N46 and T147). Structural modeling of the HLA-DRB1:HLA-DM (lower left) and CD4:HLA-DRB1:TCR (lower right) complexes. Potential glycosylation sites, N48 and T129, of HLA-DR1 beta chain are shown as sticks. CD4 (cyan), HLA-DRB1 (yellow), antigen peptide (magenta), and TCR (green)(lower right). (b) HLA-DRB1 peptide fragment identified by nano-LC/MS to be fucosylated on N48, with predicted HexNAc(4)Hex(3)Fuc(1) glycan structure shown above. (c) Lectin pull down (LPD) and IB analyses of EV and V5-tagged wild-type HLA-DRB1 (WT)-, HLA-DRB1 N48G (N48G)-, and HLA-DRB1 T129A (T129A)-expressing WM793 cells. (d) DMSO- or fucosyltransferase inhibitor (FUTi)-treated WM793 cells immunofluorescently stained for endogenous HLA-DRB1, KDEL (ER marker), and DAPI (20× magnification). (e) Flow cytometric analysis for relative cell surface fucosylation (upper) and cell surface HLA-DRB1 (upper middle), qRT-PCR analysis of relative HLA-DRB1 mRNA levels (lower middle), and IB analysis of HLA-DRB1 protein levels (lower) in WM793 and 1205Lu cells treated with DMSO (D), 250 μM FUTi (i), or 250 μM L-fuc (LF). (f) Volumetric growth curves for shNT (non-targeting shRNA)+EV (control SW1 tumors)(upper left) or shEB1 tumors reconstituted with EV (upper right), EB1 WT (lower left), or EB1 N46G (lower right) in C3H/HeN mice. Control (grey) or L-fucose supplemented water (red, 100 mM; ▾=initiated supplementation) was provided ad libitum. The tumor growth curves are means±SEM from ≥7 mice per group. *=p<0.05.
FIGS. 19A and 19B show nano-LC/MS spectral identification of fucosylated HLA-DRB1 peptide; and the effects of modulating fucosylation on HLA-DRB1 localization, total protein, and mRNA levels (a) nano-LC/MS/MS spectra showing fucosylated HLA-DRB1 peptide (arrow). (b) Flow cytometric analysis for relative cell surface fucosylation (upper) and cell surface HLA-DRB1 levels (upper middle), qRT-PCR analysis of relative HLA-DRB1 mRNA levels (lower middle), and IB analysis of HLA-DRB1 protein levels (lower) in indicated melanoma cell lines treated with DMSO (D), 250 μM FUTi (i), or 250 μM L-fuc (LF). *=p<0.05.
HLA-DRB1, and PD-L1: Indicated cells were treated for 72 h with DMSO, 250 μM fucosyltransferase inhibitor (FUTi) (Millipore Sigma (St. Louis, MO)), or 250 μM of L-fucose (Biosynth (Oak Terrace, IL)). After 72 h, cells were stained with 0.1 μM PKH26 (Millipore Sigma (St. Louis, MO)) prior to fixation in 4% formaldehyde solution. The cells were stained with anti-HLA-DRB1 and fluorescein AAL, or anti-human or anti-mouse PD-L1 overnight. The following day the cells were washed 3 times prior to adding AlexaFluor 594 donkey anti-rabbit. Cells were washed 3 times and then subject to flow cytometric analyses using a FACSCalibur (BD Biosciences (San Jose, CA)). Samples were analyzed using FlowJo analysis software (BD Biosciences (San Jose, CA)). Median values of DRB1 and AAL were normalized to PKH26 values and statistical analysis was performed using GraphPad Prism.
Cells were lysed on ice in RIPA lysis buffer (25 mM Tris-HCl pH 7.6, 150 mM NaCl, 5 mM EDTA, 1% NP-40 or 1% Triton X-100, 1% sodium deoxycholate, 0.1% SDS in diH20+protease and phosphatase inhibitors (ThermoFisher Scientific (Waltham, MA)), briefly sonicated, pelleted, and the resulting lysates were normalized by protein concentration using DC assay (BioRad Laboratories, (Hercules, CA)). The indicated samples were subjected to (12%) SDS-PAGE and immunoblot analysis using the indicated antibodies. Immunoblot imaging and analysis was performed using either an Odyssey FC scanner and ImageStudio (LiCor Biosciences, Lincoln, NE) or film. […]

[2] = system: 4T1 mouse breast tumor; test: 4T1 mouse breast tumor growth ± L-fucose supplemented water; assay type: in vivo, Balb/C mice; details: 500 mM L-fucose supplemented water ad libitum from 100 mm^3 (FIG. 3H)
Procedure: To determine which immune cell populations were affected by L-fucose, another mouse melanoma model treated with control or L-fucose-supplemented water was used. […] Rather than being immunosuppressive, these cells elicit immunostimulatory activity (at this point in terms of augmenting T cell activation) (FIG. 3). […] In fact, upon reaching 100 mm^3, 4T1 mouse breast tumor-bearing Balb/C mice were provided with control or 500 mM L-fucose supplemented water ad libitum and L-fucose suppressed tumor growth by 50% (FIG. 3H). Moreover, the number of TILs increased following administration of L-fucose (FIG. 3C). We next looked at the specific populations of cells proliferating in TILs following L-fucose administration. We saw a 3.1 fold increase in MDSC cell and CD4 T cells (FIG. 3D). To verify that the increases in the TIL populations were attributed to fucosylation, we treated mice with L-fucose or 2FF (fucosylation inhibitor) and observed the change in MDSC. We observed that L-fucose increased MDSC populations, but 2FF decreased MDSC (FIG. 3E). […] This shift is depicted in FIG. 4.

SMILES	HLA-DRB1 mRNA and protein levels [1]	cell surface HLA-DRB1 [1]	cell surface fucosylation [1]	suppression of tumor growth [2] [%]
CC(=O)OC1O[C@@H](C)[C@@H](OC(C)=O)[C@@H](OC(C)=O)[C@@H]1F (stereo partly shown) [FUTi, 2F-peracteyl-fucose, reference compound]	remained unchanged	decreased	decreased	
C[C@H](O)[C@@H](O)[C@@H](O)[C@H](O)C=O [L-fucose]	remained unchanged	increased	increased	50
